Reference: article PMC4311625, “Structural determinants for binding to angiotensin converting enzyme 2 (ACE2) and angiotensin receptors 1 and 2” (Frontiers in Pharmacology, 2015)
Where two headings read alike, the source gives them in different places. Ends that are not written are not given here. Peptide text beside a SMILES is read from it.

Legend:
ACE2 [1] = target: T1, ACE2 (Homo sapiens, UniProt Q9BYF1); experiment: ACE2 quenched fluorescence substrate (QFS) inhibition assay; format: biochemical; details: for inhibition at 0.1 µM: peptide 0.1 μM, read-out: Inhibition (%) of ACE2, AngII chimeras, 0.1 μM; for inhibition at 1 µM: peptide 1 μM, read-out: Inhibition (%) of ACE2, AngII chimeras, 1 μM
Description: Angiotensin converting enzyme 2 QFS assays were performed for 1 h in 50 uM QFS, 1 M NaCl, 100 mM Tris-Cl, pH 6.5 at 37∘C on a BMG LabTechnologies (Offenburg, Germany), FLUOStar Optima in a 96 well-plate. Subsequent data analysis determined the inhibition of native AngII, its analogs and C-terminal peptides compared to the ACE2 QFS substrate [MCA-APK(DNP)-OH, [Vickers et al., 2002]]. […] Three controls were included in each ACE2 QFS assay; AngII (100 and 10 μM), IHPF (100 μM) and a known ACE2 inhibitor (1 nM; Millennium Pharmaceuticals, Cambridge, MA, USA). QFS assay results were accepted when ACE2 inhibition by AngII (10 μM) was 80 ± 5%, IHPF was 65 ± –5% and the ([Qian et al., 1999]) ‘Millennium Inhibitor’ was 70 ± –5%. Acceptable coefficients of variation (CV; standard deviation/mean × 100) for sample triplicates were <7%.
A library of 40 tetrapeptides based on the four C-terminal residues of Ang II (Ile-His-Pro-Phe/IHPF) was generated and screened for ACE2 binding at 100 μM in order to identify key residues of the C-terminus of Ang II involved in binding to the ACE2 active site. […] Several substitutions (Val, Tyr, Ala, Gly, Phe, Trp, Pro, His, Ile, and Leu) were made in order to further probe the highly hydrophobic and cyclic specificity of the C-terminus of Ang II. A β-napthalene amino acid (Nth) derivative was used as a highly hydrophobic non-natural cyclic residue substitute, and Arg and Lys were substituted for histidine at the second position from the N-terminus of the tetrapeptide to determine if positive charge or other structural or positional requirements were important.

ACE2 [2] = target: T1, ACE2; experiment: LC–MS ACE2 proteolytic cleavage assay; format: in vitro ADME; details: LC–MS; for Cleavage (%) by ACE2, 1 μM: peptide 1 μM incubated with ACE2 at 37 °C, typically 4-5 h; for Cleavage (%) by ACE2, 10 μM: peptide 10 μM incubated with ACE2 at 37 °C, typically 4-5 h (5 h)
Description: The first hour of the incubation was performed in the Fluorostar Optima plate reader in order to confirm previously observed level of inhibition, then for the remaining time the samples were transferred to small microfuge tubes and incubated in a water bath. The extent of ACE2 cleavage was assessed by LC–MS on an Agilent capillary HP1100, MSD VL3000 Ion-Trap system.

[3] = QFS assay, pH 6.5, 37 °C, 1 h, value ± spread
[4] = peptide 10 μM, QFS assay, pH 6.5, 37 °C, 1 h, value ± spread, read-out: Inhibition (%) of ACE2, AngII chimeras, 10 μM
[5] = peptide 100 μM, 50 uM QFS, 1 M NaCl, 100 mM Tris-Cl pH 6.5, 37 °C, 1 h, triplicate, read-out: Inhibition (%) of ACE2, single and multiple residue substitution analogs (Table 2)
[6] = read-out: ACE2 inhibition of terminally modified IHPF analogs, 10 μM (Table 3, in brackets), peptide 10 μM, 50 uM QFS, 1 M NaCl, 100 mM Tris-Cl pH 6.5, 37 °C, 1 h
[7] = read-out: ACE2 inhibition of terminally modified IHPF analogs, 100 μM (Table 3), peptide 100 μM, 50 uM QFS, 1 M NaCl, 100 mM Tris-Cl pH 6.5, 37 °C, 1 h
[8] = pH 6.5, read-out: ACE2 inhibition of terminally modified IHPF analogs, 100 μM (Table 3)
[9] = peptide 100 μM, 50 uM QFS MCA-APK(DNP)-OH, 1 M NaCl, 100 mM Tris-Cl pH 6.5, 37 °C, 1 h, fluorescence, triplicate, read-out: ACE2 inhibition of single substitution analogs of the C-terminal of AngII (Table 1)
[10] = 1 h, pH 6.5, read-out: Inhibition (%) of ACE2, single and multiple residue substitution analogs (Table 2)

T1 sequence (Q9BYF1 18-805, species assumed): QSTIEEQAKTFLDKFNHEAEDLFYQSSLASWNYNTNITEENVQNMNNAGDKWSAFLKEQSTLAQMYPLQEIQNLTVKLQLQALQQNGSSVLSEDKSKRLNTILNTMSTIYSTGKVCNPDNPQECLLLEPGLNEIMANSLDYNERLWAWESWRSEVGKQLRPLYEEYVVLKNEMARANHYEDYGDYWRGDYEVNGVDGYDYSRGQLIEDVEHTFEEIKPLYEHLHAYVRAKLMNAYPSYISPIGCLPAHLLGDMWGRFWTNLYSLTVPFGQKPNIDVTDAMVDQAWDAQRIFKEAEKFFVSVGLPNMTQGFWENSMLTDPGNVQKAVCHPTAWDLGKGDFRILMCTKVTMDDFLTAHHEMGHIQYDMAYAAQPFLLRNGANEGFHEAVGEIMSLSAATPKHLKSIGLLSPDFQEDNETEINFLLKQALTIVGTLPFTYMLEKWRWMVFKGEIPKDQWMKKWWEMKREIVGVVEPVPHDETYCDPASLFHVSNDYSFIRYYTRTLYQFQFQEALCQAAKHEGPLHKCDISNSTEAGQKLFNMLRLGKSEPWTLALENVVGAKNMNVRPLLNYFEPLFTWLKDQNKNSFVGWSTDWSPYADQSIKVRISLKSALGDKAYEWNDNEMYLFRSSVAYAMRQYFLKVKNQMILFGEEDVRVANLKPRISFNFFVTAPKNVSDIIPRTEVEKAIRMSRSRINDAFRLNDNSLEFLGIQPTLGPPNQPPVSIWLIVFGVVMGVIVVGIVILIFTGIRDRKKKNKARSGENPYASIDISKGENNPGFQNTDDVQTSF

Compound	inhibition at 10 µM (ACE2 [1]; [6])	inhibition at 100 µM (ACE2 [1]; [7])	further results
CC[C@H](C)[C@H](NC(=O)[C@H](Cc1ccc(O)cc1)NC(=O)[C@@H](NC(=O)[C@H](CCCNC(=N)N)NC(=O)[C@@H](N)CC(=O)O)C(C)C)C(=O)N[C@@H](Cc1cnc[nH]1)C(=O)N1CCC[C@H]1C(=O)N[C@@H](Cc1ccccc1)C(=O)O [Angiotensin II, reference compound]	–	–	inhibition at 0.1 µM (ACE2 [1]; [3]): -5%; inhibition at 1 µM (ACE2 [1]; [3]): 21 ± 6.8%; inhibition at 10 µM (ACE2 [1]; [4]): 77 ± 2.9%; inhibition at 100 µM (ACE2 [1]; [5]): 97%; inhibition at 100 µM (ACE2 [1]; peptide 100 μM, QFS assay, pH 6.5, 37 °C, 1 h, value ± spread, read-out: Inhibition (%) of ACE2, AngII chimeras, 100 μM): 99 ± 0.3%; inhibition at 10 µM (ACE2 [1]; read-out: ACE2 inhibition by control, acceptance window of QFS assay): 80 ± 5%; Cleavage (%) by ACE2, 1 μM (ACE2 [2]): 93%; Cleavage (%) by ACE2, 10 μM (ACE2 [2]; listed as D1R2V3Y4I5H6P7F8): 40 ± 2%; Cleavage (%) by ACE2, 10 μM (ACE2 [2]; listed as native Ang II): 40%
CC[C@H](C)[C@H](NC(C)=O)C(=O)N[C@@H](Cc1c[nH]cn1)C(=O)N1CCC[C@H]1C(=O)N[C@@H](Cc1ccccc1)C(=O)O [N-acetylated IHPF] (Ac-IHPF-OH)	41%	87%	–
CC[C@H](C)[C@H](NC(C)=O)C(=O)N[C@@H](Cc1ccc(O)cc1)C(=O)N1CCC[C@H]1C(=O)N[C@@H](Cc1ccccc1)C(=O)O [N-acetylated IYPF] (Ac-IYPF-OH)	62%	93%	–
CC(=O)N1CCC[C@H]1C(=O)N[C@@H](Cc1c[nH]cn1)C(=O)N1CCC[C@H]1C(=O)N[C@@H](Cc1ccccc1)C(=O)O [N-acetylated PHPF] (Ac-PHPF-OH)	–	57%	–
CC(=O)N1CCC[C@H]1C(=O)N[C@@H](Cc1c[nH]cn1)C(=O)N[C@H](C(=O)N[C@@H](Cc1ccccc1)C(=O)O)C(C)C [N-acetylated PHVF] (Ac-PHVF-OH)	–	8%	–
CC(=O)N1CCC[C@H]1C(=O)N[C@@H](Cc1ccc(O)cc1)C(=O)N1CCC[C@H]1C(=O)N[C@@H](Cc1ccccc1)C(=O)O [N-acetylated PYPF] (Ac-PYPF-OH)	44%	87%	–
CC(=O)N1CCC[C@H]1C(=O)N[C@@H](Cc1ccc(O)cc1)C(=O)N[C@H](C(=O)N[C@@H](Cc1ccccc1)C(=O)O)C(C)C [N-acetylated PYVF] (Ac-PYVF-OH)	18%	78%	–
CC(=O)N[C@H](C(=O)N[C@@H](Cc1c[nH]cn1)C(=O)N[C@H](C(=O)N[C@@H](Cc1ccccc1)C(=O)O)C(C)C)C(C)C [N-acetylated VHVF] (Ac-VHVF-OH)	31%	76%	–
CC(=O)N[C@H](C(=O)N[C@@H](Cc1ccc(O)cc1)C(=O)N1CCC[C@H]1C(=O)N[C@@H](Cc1ccccc1)C(=O)O)C(C)C [N-acetylated VYPF] (Ac-VYPF-OH)	79%	98%	–
CC[C@H](C)[C@H](NC(C)=O)C(=O)N[C@@H](Cc1c[nH]cn1)C(=O)N1CCC[C@H]1C(=O)N[C@@H](Cc1ccccc1)C(N)=O [N-acetylated/C-amidated IHPF] (Ac-IHPF-NH2)	–	26%	–
CC[C@H](C)[C@H](NC(C)=O)C(=O)N[C@@H](Cc1ccc(O)cc1)C(=O)N1CCC[C@H]1C(=O)N[C@@H](Cc1ccccc1)C(N)=O [N-acetylated/C-amidated IYPF] (Ac-IYPF-NH2)	–	18%	–
CC(=O)N1CCC[C@H]1C(=O)N[C@@H](Cc1c[nH]cn1)C(=O)N1CCC[C@H]1C(=O)N[C@@H](Cc1ccccc1)C(N)=O [N-acetylated/C-amidated PHPF] (Ac-PHPF-NH2)	–	8%	–
CC(=O)N1CCC[C@H]1C(=O)N[C@@H](Cc1c[nH]cn1)C(=O)N[C@H](C(=O)N[C@@H](Cc1ccccc1)C(N)=O)C(C)C [N-acetylated/C-amidated PHVF] (Ac-PHVF-NH2)	–	12%	–
CC(=O)N1CCC[C@H]1C(=O)N[C@@H](Cc1ccc(O)cc1)C(=O)N1CCC[C@H]1C(=O)N[C@@H](Cc1ccccc1)C(N)=O [N-acetylated/C-amidated PYPF] (Ac-PYPF-NH2)	–	–	inhibition at 100 µM (ACE2 [1]; [8]): 28%
CC(=O)N1CCC[C@H]1C(=O)N[C@@H](Cc1ccc(O)cc1)C(=O)N[C@H](C(=O)N[C@@H](Cc1ccccc1)C(N)=O)C(C)C [N-acetylated/C-amidated PYVF] (Ac-PYVF-NH2)	–	25%	–
CC(=O)N[C@H](C(=O)N[C@@H](Cc1c[nH]cn1)C(=O)N[C@H](C(=O)N[C@@H](Cc1ccccc1)C(N)=O)C(C)C)C(C)C [N-acetylated/C-amidated VHVF] (Ac-VHVF-NH2)	4%	21%	–
CC(=O)N[C@H](C(=O)N[C@@H](Cc1ccc(O)cc1)C(=O)N1CCC[C@H]1C(=O)N[C@@H](Cc1ccccc1)C(N)=O)C(C)C [N-acetylated/C-amidated VYPF] (Ac-VYPF-NH2)	–	–	inhibition at 100 µM (ACE2 [1]; [8]): 30%
O=C(O)[C@H](Cc1ccccc1)NC(=O)[C@@H]1CCCN1C(=O)[C@H](Cc1c[nH]cn1)NC(=O)[C@@H]1CCCN1 [PHPF] (H-PHPF-OH)	20%	81%	inhibition at 100 µM (ACE2 [1]; [9]): 78%
CC(C)[C@H](NC(=O)[C@H](Cc1c[nH]cn1)NC(=O)[C@@H]1CCCN1)C(=O)N[C@@H](Cc1ccccc1)C(=O)O [PHVF] (H-PHVF-OH)	49%	93%	inhibition at 100 µM (ACE2 [1]; [5]): 93%
O=C(O)[C@H](Cc1ccccc1)NC(=O)[C@@H]1CCCN1C(=O)[C@H](Cc1ccc(O)cc1)NC(=O)[C@@H]1CCCN1 [PYPF] (H-PYPF-OH)	–	–	inhibition at 100 µM (ACE2 [1]; [10]): 93%; inhibition at 10 µM (ACE2 [1]; pH 6.5, read-out: ACE2 inhibition of terminally modified IHPF analogs, 10 μM (Table 3, in brackets)): 50%; inhibition at 100 µM (ACE2 [1]; [8]): 93%
CC(C)[C@H](NC(=O)[C@H](Cc1ccc(O)cc1)NC(=O)[C@@H]1CCCN1)C(=O)N[C@@H](Cc1ccccc1)C(=O)O [PYVF] (H-PYVF-OH)	51%	94%	inhibition at 100 µM (ACE2 [1]; [5]): 94%
CC(C)[C@H](N)C(=O)N[C@@H](Cc1c[nH]cn1)C(=O)N1CCC[C@H]1C(=O)N[C@@H](Cc1ccccc1)C(=O)O [VHPF] (H-VHPF-OH)	–	–	inhibition at 100 µM (ACE2 [1]; [9]): 78%; inhibition at 100 µM (ACE2 [1]; [5]): 78%
CC(C)[C@H](N)C(=O)N[C@@H](Cc1c[nH]cn1)C(=O)N[C@H](C(=O)N[C@@H](Cc1ccccc1)C(=O)O)C(C)C [VHVF] (H-VHVF-OH)	37%	85%	inhibition at 100 µM (ACE2 [1]; [5]): 85%
CC(C)[C@H](N)C(=O)N[C@@H](Cc1ccc(O)cc1)C(=O)N1CCC[C@H]1C(=O)N[C@@H](Cc1ccccc1)C(=O)O [VYPF] (H-VYPF-OH)	–	–	inhibition at 100 µM (ACE2 [1]; [10]): 90%
CC(C)[C@H](N)C(=O)N[C@@H](Cc1ccc(O)cc1)C(=O)N[C@H](C(=O)N[C@@H](Cc1ccccc1)C(=O)O)C(C)C [VYVF] (H-VYVF-OH)	–	–	inhibition at 100 µM (ACE2 [1]; [5]): 78%
N[C@@H](Cc1c[nH]c2ccccc12)C(=O)N[C@@H](Cc1c[nH]cn1)C(=O)N1CCC[C@H]1C(=O)N[C@@H](Cc1ccccc1)C(=O)O [WHPF] (H-WHPF-OH)	–	–	inhibition at 100 µM (ACE2 [1]; [9]): 0%
N[C@@H](Cc1ccc(O)cc1)C(=O)N[C@@H](Cc1c[nH]cn1)C(=O)N1CCC[C@H]1C(=O)N[C@@H](Cc1ccccc1)C(=O)O [YHPF] (H-YHPF-OH)	–	–	inhibition at 100 µM (ACE2 [1]; [9]): 34%
DRVYIYPF	–	–	inhibition at 0.1 µM (ACE2 [1]; [3]): 17%; inhibition at 1 µM (ACE2 [1]; [3]): 78 ± 2%; inhibition at 10 µM (ACE2 [1]; [4]): 96%; Cleavage (%) by ACE2, 1 μM (ACE2 [2]): 85%; Cleavage (%) by ACE2, 10 μM (ACE2 [2]): 18 ± 1.2%
